Reference: patent US8937091B2 (Japan Science and Technology Agency, priority 2009, dated 2015)

Experiments:
[1] = tested on: IICR (IP3 induced calcium release) in CHO cells; test: Assay of IICR (IP3 induced calcium release)-inhibiting action; type: cell-based, Chinese hamster; details: for inhibition at 10 µM: test compound 10 μmol
Outline: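 Inhibition (%) of the intracellular calcium increase triggered by 10 μM ATP, measured in CHO cells in BSS with calcium. Compound given 1 min after the buffer exchange and 2 min before ATP; values reported per compound concentration.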

[2] = tested on: SOCE (store operated calcium entry) in CHO cells; test: Assay of SOCE (store operated calcium entry)-inhibiting action; type: cell-based, Chinese hamster; details: for inhibition at 10 µM / inhibition at 30 µM / inhibition at 100 µM / SOCE level (percentage of inhibition): CHO cells, thapsigargin; for inhibition at 10 µM / inhibition at 30 µM / inhibition at 100 µM: read-out: SOCE level (percentage of inhibition)
Outline: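 CHO cells in calcium-free BSS received compound, then 1 μM thapsigargin 2 min later to deplete stores; after 9 min, 2 mM calcium chloride (final) added. Percent inhibition of the rise in intracellular calcium determined at various compound concentrations.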

[3] = Cricetulus griseus, CHO, CHO cells, 10 μM ATP, read-out: IICR level (percentage of inhibition)
[4] = Cricetulus griseus, CHO, test compound 30 μmol, CHO cells, 10 μM ATP, read-out: IICR level (percentage of inhibition)
[5] = Cricetulus griseus, CHO, test compound 100 μmol, CHO cells, 10 μM ATP, read-out: IICR level (percentage of inhibition)
[6] = Cricetulus griseus, CHO, test compound 10 μmol
[7] = Cricetulus griseus, CHO, test compound 30 μmol
[8] = Cricetulus griseus, CHO, test compound 100 μmol
[9] = Cricetulus griseus, CHO, Table 1

Compound: Cc1ccc(C(=O)CCNCc2ccccc2)o1 [Example 152, 2-(N-benzyl)aminoethyl-5-methyl-2-furylketone]
- inhibition at 10 µM [1, 3]: 20%
- inhibition at 30 µM [1, 4]: 10%
- inhibition at 100 µM [1, 5]: 30%
- inhibition at 10 µM [2, 6]: 0%
- inhibition at 30 µM [2, 7]: 10%
- inhibition at 100 µM [2, 8]: 30%

Compound: CC(C)N(CCO)CCC(=O)c1ccco1 [Example 153, 2-(N-hydroxyethylisopropyl)aminoethyl-2-furylketone]
- inhibition at 20 µM ([1]; Cricetulus griseus, CHO, test compound 20 μmol, CHO cells, 10 μM ATP, read-out: IICR level (percentage of inhibition)): 50%
- IC50 [1, 9]: 20 µM
- IICR level (percentage of inhibition) ([1]; test compound 30 μmol, CHO cells, 10 μM ATP): 60%
- IICR level (percentage of inhibition) ([1]; test compound 100 μmol, CHO cells, 10 μM ATP): 80%
- inhibition at 10 µM [2, 6]: 0%
- inhibition at 30 µM [2, 7]: 0%
- IC50 [2, 9]: > 100 µM
- SOCE level (percentage of inhibition) ([2]; test compound 100 μmol): 10%

Compound: CC(C)N(CCO)CCC(=O)c1ccccn1 [Example 154, 2-(N-hydroxyethylisopropyl)aminoethyl-2-pyridylketone]
- inhibition at 10 µM [1, 3]: 40%
- inhibition at 30 µM [1, 4]: 20%
- inhibition at 100 µM [1, 5]: 80%
- inhibition at 10 µM [2, 6]: 0%
- inhibition at 30 µM [2, 7]: 0%
- inhibition at 100 µM [2, 8]: 0%

Compound: CC(C)N(CCO)CCC(=O)c1ccncc1 [Example 155, 2-(N-hydroxyethylisopropyl)aminoethyl-4-pyridylketone]
- inhibition at 10 µM [1, 3]: 20%
- inhibition at 30 µM [1, 4]: 50%
- inhibition at 100 µM [1, 5]: 80%
- inhibition at 10 µM [2, 6]: 0%
- inhibition at 30 µM [2, 7]: 0%
- inhibition at 100 µM [2, 8]: 0%

Compound: CC(C)N(CCO)CCC(=O)c1nccs1 [Example 156, 2-(N-hydroxyethylisopropyl)aminoethyl-2-thiazolylketone]
- inhibition at 10 µM [1, 3]: 20%
- inhibition at 30 µM [1, 4]: 30%
- inhibition at 100 µM [1, 5]: 60%
- inhibition at 10 µM [2, 6]: 0%
- inhibition at 30 µM [2, 7]: 10%
- inhibition at 100 µM [2, 8]: 20%

Compound: CC(CN(CCO)C(C)C)C(=O)c1ccc(F)cc1 (stereo not drawn) [Example 157, 1-methyl-2-(N-hydroxyethylisopropyl)aminoethyl-4-fluorophenylketone]
- inhibition at 10 µM [1, 3]: 0%
- inhibition at 30 µM [1, 4]: 0%
- inhibition at 100 µM [1, 5]: 0%
- inhibition at 10 µM [2, 6]: 0%
- inhibition at 30 µM [2, 7]: 0%
- inhibition at 100 µM [2, 8]: 0%

Compound: CC(C)N(CCO)CCC(=O)c1cccnc1 [Example 158, 2-(N-isopropylhydroxyethyl)aminoethyl-3′-pyridylketone]
- inhibition at 10 µM [1, 3]: 30%
- inhibition at 30 µM [1, 4]: 20%
- inhibition at 100 µM [1, 5]: 20%
- inhibition at 10 µM [2, 6]: 0%
- inhibition at 30 µM [2, 7]: 0%
- inhibition at 100 µM [2, 8]: 0%

Compound: CC(CN(CCO)Cc1ccccc1)C(=O)c1ccc(F)cc1 (stereo not drawn) [Example 159, 2-(N-hydroxyethylbenzyl)amino-1-methylethyl-4-fluorophenylketone]
- inhibition at 10 µM [1, 3]: 0%
- inhibition at 30 µM [1, 4]: 0%
- inhibition at 100 µM [1, 5]: 20%
- inhibition at 10 µM [2, 6]: 0%
- inhibition at 30 µM [2, 7]: 0%
- inhibition at 100 µM [2, 8]: 20%

Compound: CC(CN(CCO)CCO)C(=O)c1ccc(F)cc1 (stereo not drawn) [Example 160, 2-(N-bis(hydroxyethyl))amino-1-methylethyl-4-fluorophenylketone]
- inhibition at 10 µM [1, 3]: 0%
- inhibition at 30 µM [1, 4]: 0%
- inhibition at 100 µM [1, 5]: 20%
- inhibition at 10 µM [2, 6]: 0%
- inhibition at 30 µM [2, 7]: 20%
- inhibition at 100 µM [2, 8]: 60%

Compound: CC(CN(CCO)C(C)(C)C)C(=O)c1ccc(F)cc1 (stereo not drawn) [Example 161, 2-(N-hydroxyethyl-t-butyl)amino-1-methylethyl-4-fluorophenylketone]
- inhibition at 10 µM [1, 3]: 0%
- inhibition at 30 µM [1, 4]: 0%
- inhibition at 100 µM [1, 5]: 20%
- inhibition at 10 µM [2, 6]: 0%
- inhibition at 30 µM [2, 7]: 0%
- inhibition at 100 µM [2, 8]: 20%

Compound: CC(CN(Cc1ccccc1)C(C)(C)C)C(=O)c1ccc(F)cc1 (stereo not drawn) [Example 162, 2-(N-t-butylbenzyl)amino-1-methylethyl-4-fluorophenylketone]
- inhibition at 10 µM [1, 3]: 0%
- inhibition at 30 µM [1, 4]: 0%
- inhibition at 100 µM [1, 5]: 0%
- inhibition at 10 µM [2, 6]: 0%
- inhibition at 30 µM [2, 7]: 0%
- inhibition at 100 µM [2, 8]: 40%

Compound: CC(CN(C)CCO)C(=O)c1ccc(F)cc1 (stereo not drawn) [Example 163, 2-(N-hydroxyethylmethyl)amino-1-methylethyl-4-fluorophenylketone]
- inhibition at 10 µM [1, 3]: 0%
- inhibition at 30 µM [1, 4]: 0%
- inhibition at 100 µM [1, 5]: 0%
- inhibition at 10 µM [2, 6]: 0%
- inhibition at 30 µM [2, 7]: 0%
- inhibition at 100 µM [2, 8]: 20%

Compound: Cn1cccc1C(=O)CCN(CCO)Cc1ccccc1 [Example 164, 2-(N-benzyl-2-hydroxyethyl)aminoethyl-2-(N-methylpyrrolyl)ketone]
- inhibition at 10 µM [1, 3]: 0%
- inhibition at 30 µM [1, 4]: 0%
- inhibition at 100 µM [1, 5]: 40%
- inhibition at 10 µM [2, 6]: 0%
- inhibition at 30 µM [2, 7]: 0%
- inhibition at 100 µM [2, 8]: 10%

Compound: Cn1cccc1C(=O)CCN(Cc1ccccc1)C(C)(C)C [Example 165, 2-(N-benzyl-t-butyl)aminoethyl-2-(N-methylpyrrolyl)ketone]
- inhibition at 10 µM [1, 3]: 0%
- inhibition at 30 µM [1, 4]: 0%
- inhibition at 100 µM [1, 5]: 0%
- inhibition at 10 µM [2, 6]: 0%
- inhibition at 30 µM [2, 7]: 0%
- inhibition at 100 µM [2, 8]: 0%

Compound: CC(C)N(CCO)CCC(=O)c1ccc(F)cc1 [Example 166, 2-(N-hydroxyethylisopropyl)aminoethyl-4-fluorophenylketone]
- inhibition at 10 µM [1, 3]: 0%
- inhibition at 30 µM [1, 4]: 0%
- inhibition at 100 µM [1, 5]: 0%
- inhibition at 10 µM [2, 6]: 0%
- inhibition at 30 µM [2, 7]: 0%
- inhibition at 100 µM [2, 8]: 20%

Compound: CN(CCO)CCC(=O)c1cccn1C [Example 167, 2-(N-methyl-2-hydroxyethyl)aminoethyl-2-(N-methylpyrrolyl)ketone]
- inhibition at 10 µM [1, 3]: 0%
- inhibition at 30 µM [1, 4]: 0%
- inhibition at 100 µM [1, 5]: 0%
- inhibition at 10 µM [2, 6]: 0%
- inhibition at 30 µM [2, 7]: 0%
- inhibition at 100 µM [2, 8]: 0%

Compound: CC(C)N(CC(=O)c1ccccc1)Cc1ccccc1 [Example 168, 2-(N-isopropylbenzyl)aminomethyl-4-phenylketone]
- inhibition at 10 µM [1, 3]: 0%
- inhibition at 30 µM [1, 4]: 0%
- inhibition at 100 µM [1, 5]: 70%
- inhibition at 10 µM [2, 6]: 0%
- inhibition at 30 µM [2, 7]: 0%
- inhibition at 100 µM [2, 8]: 50%

Compound: CC(C)N(CCO)CCC(=O)c1cccn1C [Example 169, 2-(N-isopropyl-2-hydroxyethyl)aminoethyl-2-(N-methylpyrrolyl)ketone]
- inhibition at 10 µM [1, 3]: 0%
- inhibition at 30 µM [1, 4]: 0%
- inhibition at 100 µM [1, 5]: 0%
- inhibition at 10 µM [2, 6]: 0%
- inhibition at 30 µM [2, 7]: 0%
- inhibition at 100 µM [2, 8]: 0%

Compound: CC(C)N(CCO)CCC(=O)c1ccc[nH]1 [Example 170, 2-(N-isopropyl-2-hydroxyethyl)aminoethyl-2-pyrrolylketone]
- inhibition at 10 µM [1, 3]: 0%
- inhibition at 30 µM [1, 4]: 0%
- inhibition at 100 µM [1, 5]: 0%
- inhibition at 10 µM [2, 6]: 0%
- inhibition at 30 µM [2, 7]: 0%
- inhibition at 100 µM [2, 8]: 0%

Compound: C=CC(=O)c1ccco1 [Example 171, 2-furyl vinylketone]
- inhibition at 10 µM [1, 3]: 0%
- inhibition at 30 µM [1, 4]: 0%
- inhibition at 100 µM [1, 5]: 0%
- inhibition at 10 µM [2, 6]: 0%
- inhibition at 30 µM [2, 7]: 10%
- inhibition at 100 µM [2, 8]: 30%

Compound: CC(C)N(CCO)CCC(=O)c1ccco1 [Example 172, 2-(N-isopropylhydroxyethyl)aminoethyl-2-furylketone]
- inhibition at 10 µM [1, 3]: 0%
- SOCE level (percentage of inhibition) ([2]; test compound 10 μmol): 0%
- SOCE level (percentage of inhibition) ([2]; test compound 30 μmol): 0%
- SOCE level (percentage of inhibition) ([2]; test compound 100 μmol): 0%
